Test results as given in article PMC9694488, “Amyloid beta and its naturally occurring N-terminal variants are potent activators of human and mouse formyl peptide receptor 1” (The Journal of Biological Chemistry, 2022).
“Also recorded” adds a separate entry of the source.

Key:
[1] = tested on: human and mouse FPRs; conditions: control ligand, 10 μM; cited from earlier work
Description: Cell population responses of transfected HEK293T cells and U87 cells were recorded using a Flexstation III microplate reader (Molecular Devices). Briefly, cells were incubated with 2 μM Calbryte 520 AM (AAC Bioquest) for 2 h at room temperature in C1 assay buffer with 5 mM glucose (Carl Roth). Before each experiment, cells were rinsed three times with C1. Experiments with HEK293T cells were conducted 48 h after transfection, while experiments with U87 cells were performed 24 h after seeding.

[2] = tested on: U87 cells; test: Chemotaxis assay, U87 cells; type: cell-based, human; conditions: n = 3, N = 1; for migration of U87 cells towards receptor subtype-specific activator: 10 nM; for migration (chemotaxis) of U87 cells: IncuCyte S3, ClearView plate, 24 h, 0.5% FCS
Description: Cell migration assays were performed and analyzed with an IncuCyte S3 Life Cell Imaging System (EssenBio Science). […] Approximately, 1000 cells were placed into the top chamber of each well of a 96-well ClearView Plate (EssenBioscience). Chemoattractants were mixed in 200 μl medium and then placed in the corresponding bottom chambers. Image acquisition was performed hourly for 24 h on both sides of a membrane separating the top and bottom chambers. Subsequent analysis was performed using the IncuCyte S3 software.

[3] = tested on: U87 cells; test: Ca2+ imaging cross-desensitization, U87 cells; type: cell-based, human; conditions: n = 1, N = 3
Source text: Left: Representative image of gel electrophoresis after reverse transcription polymerase chain reaction with primers for all hFPRs. Right: Quantification of complementary DNA for all FPRs obtained through reverse transcription quantitative polymerase chain reaction, n = 5, N = 2. One-way ANOVA test, Dunnett post hoc test. B, left: representative immunocytochemistry staining of U87 cells and transfected HEK293T cells with FPR subtype–specific antibodies (red) and nuclei staining (blue). For visibility, brightness and contrast were adjusted for U87 cells and HEK293T cells differently; for absolute intensity comparison pictures with equal settings for exposure time, brightness and contrast pictures are shown in Figure S5. Scale bars indicate 100 μm. Right: Quantification of the mean FPR staining in U87 cells (green) in comparison to FPR-transfected HEK293T cells (red). Analysis was performed on images acquired with the same settings. n = 2, N = 5 for U87 cells and n = 2, N = 2 for HEK293T cells. One-way ANOVA test, Tukey post hoc test. […] One-way ANOVA test, Dunnett post hoc test. […] Representative […] traces (left) and mean Ca^2+ peak responses (right) to a secondary Aβ17-40 stimulus after pre-application of SP4 or SP6 as a first stimulus, n = 1, N = 3; t test. […] One-way ANOVA test, Tukey post hoc test. All Error bars, S.D. ∗p ≤ 0.05, ∗∗p ≤ 0.01, ∗∗∗p ≤ 0.001; ns, no significance. […]

[4] = tested on: U87 cells; test: Ca2+ imaging, U87 cells; conditions: for Ca2+ response of U87 cells to receptor subtype-specific activator: 10 nM, n = 3, N = 3; for Ca2+ response of U87 cells / U87 concentration response curve compared with FPR-transfected HEK293T cells: n = 3, N = 1
Description: Peptides in HBSS or Tris–NaCl were dissolved in an ultrasonic bath as described above. […] The Aβ17-40 peptide used throughout the main text was purchased from Anaspec/MoBiTec and validated with Aβ17-40 peptides from Sigma-Aldrich and Synpeptide. Aβ11-40 was obtained from Peptides&Elephants. […] Tert-Boc-FLFL (tBoc2) was purchased from Bachem and dissolved in DMSO at 30 mM. f-MLFYFS (Psy-SP6) and f-MAMKKL (Sal-SP4) were obtained from VCPBIO and dissolved at 10 mM in DMSO (Psy-SP6) or at 1 mM in C1 (SP4), respectively. WKWMVm-NH2 and WKWMVm-CHO were purchased from Proteogenix and VCPBIO, respectively, and dissolved as 1 mM stock solutions in C1. fMLF was purchased from Sigma-Aldrich and also dissolved at 1 mM in C1. All peptides were thawed at room temperature approximately 1 h before each functional experiment, as this time was needed to prepare the compound plates for each measurement.
U87 MG cells (CLS) were cultured in Minimum Essential medium (Biowest) supplemented with 10% (v/v) heat-inactivated FCS (Pan Biotech), 1 unit/ml penicillin-streptomycin (Biowest), 2 mM L-glutamine (Biowest), and 1 unit/ml non-essential amino acids (Biowest) until 50 to 60% confluence. For calcium imaging and immunostaining, on average 2500 cells were seeded in each well of PDL-coated (10 μg/ml in PBS, Sigma) black optical 96-well μCLEAR-plates (Greiner Bio-One).
(§1) Cell population responses of transfected HEK293T cells and U87 cells were recorded using a Flexstation III microplate reader (Molecular Devices). Briefly, cells were incubated with 2 μM Calbryte 520 AM (AAC Bioquest) for 2 h at room temperature in C1 assay buffer with 5 mM glucose (Carl Roth). Before each experiment, cells were rinsed three times with C1. Experiments with HEK293T cells were conducted 48 h after transfection, while experiments with U87 cells were performed 24 h after seeding. Acquisition of baseline fluorescence was performed for 25 s before ligand application, and cell population response was measured for 125 s after application.

[5] = tested on: hFPR3; test: Ca2+ imaging, HEK293T transiently transfected with hFPR3; conditions: for activation of hFPR3: 10 nM, n = 1, N = 3 (Fig. S6C); for threshold for minimal detectable activation, hFPR3: Ca2+ imaging, transfected HEK293T + Gα16, Calbryte 520, C1 buffer pH 7.2, n = 3, N = 1
Description: (§2) All peptides were thawed at room temperature approximately 1 h before each functional experiment, as this time was needed to prepare the compound plates for each measurement.
(§3) HEK293T cells (ATCC) were cultured in Dulbecco’s Modified Eagle’s medium (DMEM, Biowest) supplemented with 10% (v/v) heat-inactivated fetal calf serum (FCS, Pan Biotech), 1 unit/ml penicillin-streptomycin (Biowest), and 2 mM L-glutamine (Biowest) until 80% confluence. For transfection, approximately 2000 cells were seeded in each well of poly-D-lysine–coated (PDL) (10 μg/ml in PBS, Sigma) black optical 96-well μCLEAR-plates (Greiner Bio-One). Cells were transfected after 24 h using jetPEI (Polyplus-transfection SA) with 0.125 μg of DNA plasmids encoding the respective receptors and equal amounts of a plasmid encoding the G protein subunit Gα16 since this subunit is needed to trigger FPR-dependent calcium signals in HEK293 cells ([50], [70]). The medium of transfected cells was changed 24 h after transfection. For mock transfections, the proportion of the FPR-containing plasmids were substituted by an empty pcDNA3.1 vector.
as §1

[6] = tested on: hFPR1; test: Ca2+ imaging, HEK293T transiently transfected with hFPR1; type: cell-based, human; conditions: n = 3, N = 1; for threshold for minimal detectable activation, hFPR1: Ca2+ imaging; for sensitivity relative to full-length Aβ1-42, hFPR1: concentration response curves
[7] = tested on: hFPR2; test: Ca2+ imaging, HEK293T transiently transfected with hFPR2; type: cell-based, human; conditions: n = 3, N = 1; for threshold for minimal detectable activation, hFPR2: Ca2+ imaging, transfected HEK293T + Gα16, Calbryte 520, C1 buffer pH 7.2; for hFPR2 response concentration: concentration response curves
Description: as §2, §3, §1

[8] = tested on: mFpr1; test: Ca2+ imaging, HEK293T transiently transfected with mFpr1; type: cell-based, mouse; conditions: n = 3, N = 1; for threshold for minimal detectable activation, mFpr1: Ca2+ imaging, transfected HEK293T + Gα16, Calbryte 520, C1 buffer pH 7.2; for sensitivity relative to full-length Aβ1-42, mFpr1: concentration response curves
[9] = tested on: mFpr2; test: Ca2+ imaging, HEK293T transiently transfected with mFpr2; type: cell-based, mouse; conditions: n = 3, N = 1; for threshold for minimal detectable activation, mFpr2: Ca2+ imaging, transfected HEK293T + Gα16, Calbryte 520, C1 buffer pH 7.2; for mFpr2 response concentration: concentration response curves
Description: as §2, §3, §1

[10] = tested on: human and mouse FPRs; test: Ca2+ imaging, FPR-transfected HEK293T (several human and mouse FPRs taken together); type: cell-based; conditions: n = 3, N = 1; for Ca2+ responses on FPRs: 5 μM
Description: as §2, §3, §1

[11] = tested on: mouse and human FPR1; test: Ca2+ imaging, HEK293T with mouse and human FPR1 taken together; type: cell-based
[12] = tested on: hFPR1, hFPR2, hFPR3; test: Ca2+ imaging, human FPRs taken together; type: cell-based; conditions: transfected HEK293T
[13] = tested on: glial cells; conditions: cited from earlier work
Source text: In summary, our study provides a systematic overview over the capability of different mouse and human FPRs to interact with Aβ in different buffer systems. To our knowledge, we are the first to report an activation of hFPR3 by Aβ and the first to identify N-abridged Aβ fragments as activators of FPRs.

[14] = tested on: FPR1 and FPR2; conditions: cited from earlier work
[15] = transfected HEK293T + Gα16, Calbryte 520, assay buffer C1 pH 7.2, Flexstation III, peptide stock 5 mM in DMSO

For WKWMVm-NH2, the “activation of human and mouse FPRs” value [1] is listed as “potent activators of all three human and mouse FPRs”.
In the case of f-MLFYFS [SP6, reference compound], the “migration of U87 cells towards receptor subtype-specific activator” value [2] is reported as “migrate towards the hFPR1-stimulus SP6; also recorded: only migrated towards the FPR1-specific SP6”, the “effect of pre-application on U87 Ca2+ response to secondary Aβ17-40 stimulus” value [3] is reported as “abolished by the FPR1 activator SP6; also recorded: absent after pre-application of the FPR1-specific agonist SP6” and the “Ca2+ response of U87 cells to receptor subtype-specific activator” value [4] is reported as “U87 cells respond to the potent hFPR1 activator SP6; also recorded: only responded to the hFPR1-specific SP6 stimulus with a calcium signal”. For the same molecule, the “activation of hFPR3” value [5] was “would not activate hFPR3”.
For “Aβ11-40: N-abridged naturally occurring Aβ variant, from Peptides&Elephants”, the “threshold for minimal detectable activation, hFPR1” value (“threshold … hFPR1” below) [6, 15] was 100 nM, the “sensitivity relative to full-length Aβ1-42, hFPR1” value [6] was “more than 10 fold” and the “threshold for minimal detectable activation, hFPR2” value (shortened to “threshold … hFPR2”) [7] was 1 µM. For the same molecule, the hFPR2 response concentration [7] was “only responded to micromolar concentrations”, the “threshold for minimal detectable activation, mFpr1” value (“threshold … mFpr1” for short) [8] was 30 nM and the “sensitivity relative to full-length Aβ1-42, mFpr1” value [8] was “more than 10 fold”. For the same molecule, the “threshold for minimal detectable activation, mFpr2” value (“threshold … mFpr2” below) [9] was 1 µM, the mFpr2 response concentration [9] was “only responded to micromolar concentrations” and the “migration (chemotaxis) of U87 cells” value [2] was “Aβ11-40 but not Aβ17-40 evoked cell migration; also recorded: only Aβ11-40 but not Aβ17-40 induced migration; also recorded: Aβ11-40– but not Aβ17-40–induced chemotaxis of U87 cells”. The “Ca2+ responses on FPRs” value [10] was “elicited responses on all FPRs that we could previously activate with the full-length Aβ1-42”, the “activation of mouse and human FPR1 (in words)” value [11] was “very potent activators of mouse and human FPR1, acting at nanomolar concentrations; also recorded: drastically lower concentrations than longer peptides” and the “response of hFPRs (in addition to hFPR2)” value [12] was “all other hFPRs also responded”. The “activation of glial cells” value [13] was “shown to activate glial cells”, the “Ca2+ response of U87 cells” value [4] was “induced a strong calcium flux; also recorded: pronounced activation of U87 cells” and the “U87 concentration response curve compared with FPR-transfected HEK293T cells” value [4] was “clear correlation with the hFPR1 response; also recorded: remarkably similar to hFPR1”. For the same molecule, the “threshold for minimal detectable activation, hFPR3” value (shortened to “threshold … hFPR3”) [5] was 1 µM.
In the case of f-MAMKKL [SP4, reference compound], the “migration of U87 cells towards receptor subtype-specific activator” value [2] is reported as “do not respond to the hFPR2 agonist SP4; also recorded: not towards the FPR2-specific SP4”, the “effect of pre-application on U87 Ca2+ response to secondary Aβ17-40 stimulus” value [3] is reported as “not influenced by pre-application of the FPR2-specific agonist SP4” and the “Ca2+ response of U87 cells to receptor subtype-specific activator” value [4] is reported as “not to the hFPR2-specific SP4 stimulus”. For the same molecule, the “activation of hFPR3” value [5] was “would not activate hFPR3”.
In the case of WKWMVm-CHO, the “activation of human and mouse FPRs” value [1] is listed as “potent activators of all three human and mouse FPRs”.
In the case of “Aβ1-40: Amyloid beta peptide, human WT sequence, from Anaspec/MoBiTec”, the “threshold … hFPR1” value ([6]; transfected HEK293T + Gα16, Calbryte 520, assay buffer C1 pH 7.2, peptide stock 30 μM in C1) is reported as 3000 nM, the “threshold … hFPR2” value [7] is reported as 3 µM and the “threshold … mFpr1” value [8] is reported as 500 nM. For the same molecule, the “threshold … mFpr2” value [9] was 5 µM, the “response of hFPRs (in addition to hFPR2)” value [12] was “all other hFPRs also responded” and the “threshold … hFPR3” value [5] was 3 µM.
In the case of “Aβ17-40: N-abridged naturally occurring Aβ variant, from Anaspec, validated with Sigma-Aldrich and Synpeptide peptides (LVFFAEDVGSNKGAIIGLMVGGVV; Amyloid-beta protein 40; UniProt P05067 688-711, looked up, fragment)”, the “threshold … hFPR1” value [6, 15] is reported as 100 nM, the “sensitivity relative to full-length Aβ1-42, hFPR1” value [6] is reported as “more than 10 fold” and the “threshold … hFPR2” value [7] is reported as 1 µM. For the same molecule, the hFPR2 response concentration [7] was “only responded to micromolar concentrations”, the “threshold … mFpr1” value [8] was 30 nM and the “sensitivity relative to full-length Aβ1-42, mFpr1” value [8] was “more than 10 fold”. The “threshold … mFpr2” value [9] was 1 µM, the mFpr2 response concentration [9] was “only responded to micromolar concentrations” and the “migration (chemotaxis) of U87 cells” value [2] was “Aβ11-40 but not Aβ17-40 evoked cell migration; also recorded: only Aβ11-40 but not Aβ17-40 induced migration; also recorded: Aβ11-40– but not Aβ17-40–induced chemotaxis of U87 cells”. For the same molecule, the “susceptibility of FPR responses to manufacturer-dependent effects” value ([10]; 5 μM Aβ17-40 from Anaspec, Synpeptide, Sigma-Aldrich) was “less susceptible to manufacturer-dependent effects than full length Aβ”, the “Ca2+ responses on FPRs” value [10] was “elicited responses on all FPRs that we could previously activate with the full-length Aβ1-42” and the “activation of mouse and human FPR1 (in words)” value [11] was “very potent activators of mouse and human FPR1, acting at nanomolar concentrations; also recorded: drastically lower concentrations than longer peptides”. For the same molecule, the “response of hFPRs (in addition to hFPR2)” value [12] was “all other hFPRs also responded”, the “activation of glial cells” value [13] was “shown to activate glial cells” and the “Ca2+ response of U87 cells” value [4] was “induced a strong calcium flux; also recorded: pronounced activation of U87 cells”. For the same molecule, the “U87 concentration response curve compared with FPR-transfected HEK293T cells” value [4] was “clear correlation with the hFPR1 response; also recorded: remarkably similar to hFPR1” and the “threshold … hFPR3” value [5] was 1 µM.
In the case of “Aβ17-43: Aβ fragment of earlier studies (LVFFAEDVGSNKGAIIGLMVGGVVIAT; Amyloid-beta protein 42; UniProt P05067 688-714, looked up, fragment)”, the “activation of human glial cells” value ([13]; human glial cells) is given as “only lead to a partial activation of human glial cells”.
For C[S+](C)[O-] [DMSO, dimethyl sulfoxide], the “agonism at FPR1 and FPR2” value [14] is given as “agonist for FPR1 and FPR2”.
